The first assay deals with rabbit aortic smooth muscle. Description: Ca+2 antagonism: relaxation of KCl-depolarised rabbit thoracic aorta strips. Particulars: Oryctolagus cuniculus, 20 min; test compound 1 x 10^-5 M; 100 mM KCl contracted aortic strips; 20 min after addition; mean of two experiments; read-out: percent relaxation (P. R.). In kind it is cell-based. As to the method:
Here, transverse strips (10 mm x 2.5 mm) from the thoracic aorta were cut and suspended vertically in a jacketed (37 °C - 50 ml volume) organ bath in physiological saline solution (PSS) aerated with 95 % Oz/5 % CO9. The composition of PSS was as follows (mM) : NaCI 112, KCI 5, NaHC03 25, KH2PO4 1, MgS04 1.2, CaCI2 2.5, dextrose 10. The lower end of each tissue strip was attached to a fixed post and the upper end to a Statham UC-4 transducer. Changes in force development were recorded on a Beckman Dynograph Polygraphic Recorder.
Following equilibration, the muscles were contracted in a depolarizing solution of PSS in which 100 mM KCI was substituted for an equimolar concentration of NaCI. Following attainment of steady-state isometric force (20 min.), the test compound was added to afford a final concentration of 1 x 10-^5 M. The inhibitory effect, expressed as percent relaxation, was determined from the mean of two experiments twenty minutes after the addition of the compound being tested.
The following examples illustrate the preparation of a representative number of compounds of this invention. After each example, the Ca^2+ antagonist activity of the compound is presented in terms of percent relaxation (P. R.) at 10-^5 M concentration unless indicated otherwise. Similarly, the percentage mortality of standard experimental test animals upon coronary ligation (C. L.) is presented for comparison with the control mortality rate of 73 percent of animals receiving vehicle alone.
On to `COc1ccc(CCN(C)CCCN(C(C)C)S(=O)(=O)c2cccc(C(F)(F)F)c2)cc1OC` [Example 7, N-[3-[[2-(3,4-Dimethoxyphenyl)ethyl]methylamino]propyl]-N-(1-methylethyl)-3-(trifluoromethyl) benzenesulphonamide], for which the inhibition at 10 µM is 86.6%.
On the same count and under the same terms, for `COc1ccc(CCN(C)CCCCN(C(C)C)S(=O)(=O)c2ccc(Cl)c(Cl)c2)cc1OC` [Example 14, 3,4-Dichloro-N-(4-[[2-(3,4-dimethoxyphenyl)ethyl]methylamino]butyl]-N-(1-methylethyl) benzenesulphonamide] the value was 68%.
The same measure, in the same setting: the value for `COc1cc(OC)cc(N(C(C)C)S(=O)(=O)CCCN(C)CCc2ccc(OC)c(OC)c2)c1` [Example 1, N-(3,5-Dimethoxyphenyl)-3-[(2-(3,4-dimethoxyphenyl)ethyl]-methylamino]-N-(1-methylethyl)-1-prop-anesulphonamide] was 90%; that for `COc1ccc(CCN(C)CCCS(=O)(=O)N(c2ccc(OC)c(OC)c2)C(C)C)cc1OC` [Example 2, N-(3,4-Dimethoxyphenyl)-3-[[2-(3,4-dimethoxyphenyl)ethyl]methylaminol]-N-(1-methylethyl)-1-prop-anesulphonamide] was 74%; that for `COc1ccc(CCN(C)CCCS(=O)(=O)N(c2cccc(C(F)(F)F)c2)C(C)C)cc1OC` [Example 6, N-(3-Trifluoromethylphenyl)-3-[[2-(3,4-dimethoxyphenyl)ethyl]methylamino]-N-(1-methylethyl)-1-prop-anesulphonamide] was 78.5%.
Still for that read-out and setting: for `COc1ccc(CCN(C)CCCS(=O)(=O)N(c2cc(Cl)cc(Cl)c2)C(C)C)cc1OC` [Example 4, N-(3,5-Dichlorophenyl)-3-[[2-(3,4-dimethoxyphenyl)ethyl]methylamino]-N-(1-methylethyl)-1-propanesulp-honamide] the value was 86%; for `COc1ccc(CCN(C)CCCS(=O)(=O)N(c2cc(OC)c(OC)c(OC)c2)C(C)C)cc1OC` [Example 3, 3-[[2-(3,4-Dimethoxyphenyl)ethyl]methylamino]-N-(1-methylethyl)-N-(3,4,5-trimethoxyphenyl)-1-prop-anesulphonamide], 62%.
As for `COc1ccc(CCN(C)CCCS(=O)(=O)Nc2cccc(C(F)(F)F)c2)cc1OC` [Example 5, N-(3-Trifluoromethylphenyl)-3-[[2-(3,4-dimethoxyphenyl)-ethyl)methylamino]-1-propanesulphonamide], the inhibition at 10 µM turned out to be 51%.
As for `COc1ccc(CCN(C)CCCN(C(C)C)S(=O)(=O)c2ccc(OC)c(OC)c2OC)cc1OC` [Example 15, N-[3-[[2-(3,4-dimethoxyphenyl)ethyl]methylamino]propyl]-N-(1-methylethyl)-2.3,4-trimethoxybenzenesul-phonamide], the inhibition at 10 µM came to 80%.

The same assay, now with this note: test compound at 10-^s M as printed; 100 mM KCl contracted aortic strips; 20 min.
For `COc1cc(OC)cc(N(C(C)C)S(=O)(=O)CCCN(C)CCc2ccc(OC)c(OC)c2)c1` [Example 1, N-(3,5-Dimethoxyphenyl)-3-[(2-(3,4-dimethoxyphenyl)ethyl]-methylamino]-N-(1-methylethyl)-1-prop-anesulphonamide], the “percent relaxation (P. R.)” value was 27.

For the origin of these results see patent EP0167245B1, “Anti-arrhythmic agents” (AMERICAN HOME PRODUCTS CORPORATION, priority 1984, dated 1986).
